Data published in patent US7572376B2, “Process for producing 1,3-propanediol” (Tate & Lyle Ingredients Americas, Inc., priority 2003, dated 2009).

Columns and labels:
[1] = log P=[solute]octanol/[solute]water; cited from earlier work
[2] = solvent screen: PDO mixture with single solvents, distribution between solvent and aqueous phase; type: physicochemical; conditions: 30° C.; for Distribution Coefficient Glucose / Distribution Coefficient Glycerol / Distribution Coefficient PDO: conc. in solvent phase / conc. in aqueous phase, aqueous solution 46% w/v PDO, 3.5% glycerol, […] glucose; for Selectivity PDO/Glycerol: distribution coefficient of PDO divided by that of glycerol
Experimental: 10 g of an aqueous solution containing 46% w/v PDO, 3.5% glycerol and 2.9% glucose was heated to 30° C. and the required solvent added in very small quantities until a cloudiness just began to develop. Additional solvent (about 1 g) was added and thoroughly mixed. The mixture was allowed to settle for 10 minutes and then centrifuged to achieve complete phase separation. The two phases (solvent and aqueous) were analyzed.

Structure (SMILES)	hydrophobic parameter log P [1]	Distribution Coefficient Glucose [2]	Distribution Coefficient Glycerol [2]	Distribution Coefficient PDO [2]	Selectivity PDO/Glycerol [2]	also measured
CCOC(C)=O [ethyl acetate]	0.68	–	–	–	–	–
CCCCCO [Pentan-1-ol]	–	0.256	0.417	0.609	1.46	–
CC(=O)CC(C)C [4-Methyl Pentan-2-one]	–	0.001	0.008	0.033	4.03	–
CCCCCCCCCC [decane]	5.98	–	–	–	–	–
CCCCCCCO [heptanol]	2.4	–	–	–	–	–
OCCCCO [1,4 butanediol]	−1.384	–	–	–	–	–
CCCCCCCCCCCCO [dodecanol]	5.0	–	–	–	–	–
CCCCCCCC/C=C\CCCCCCCC(=O)O [Oleic acid]	–	0.241	0.002	0.009	5.23	–
CCCCO [Butan-1-ol]	–	–	–	–	–	phase formation on adding solvent to the aqueous PDO solution [2]: Only one liquid phase formed
CCCCCCCC [octane]	4.5	–	–	–	–	–
CC(O)CO (stereo not shown) [1,2 PDO]	−1.003	–	–	–	–	–
OCC(O)CO [glycerol]	−2.08	–	–	–	–	–
CC(=O)OC(C)C [isopropyl acetate]	–	0.001	0.005	0.024	5.17	–
CCCCCCC [heptane]	4.0	–	–	–	–	–
CCCOC(C)=O [propyl acetate]	1.2	–	–	–	–	–
CCCCCCCC/C=C\CCCCCCCCO [Oleyl Alcohol]	–	0.001	0.024	0.038	1.60	–
